{
  "source": "patent US12729218B2",
  "about": "“Glycolipids and use thereof as SK3 ion channel modulators” (priority 2020, dated 2026)",
  "key": {"SK3 channels": {"target": "T1, SK3 channels (Homo sapiens, UniProt Q9UGI6)", "T1 construct": "expressed in transfected cells", "experiment": "Whole-cell patch-clamp of SK3 currents in HEK293T cells expressing SK3 channels", "type": "cell-based", "conditions": "10 μM; for time after addition at which the effect on SK3 current was reached / time after application at which the maximum of the activation of SK3 current was reached: currents at 0 mV", "experimental": "HEK293T were obtained from American Type Culture Collection (ATCC) and cultured in Dulbecco's Modified Eagle's Medium, supplemented with 10% (v:v) fetal bovine serum (Lonza, France), 1 mM pyruvate sodium (Sigma-Aldrich, France), and 1% non-essential amino acid (Sigma-Aldrich, France). Cells were grown in a humidified atmosphere at 37° C. and with 95% air and 5% CO2. HEK293T cells were transduced as previously described to obtain stable expression of homotetramer SK3 channels.\nExperiments were performed in the whole-cell configuration of the patch-clamp technique. The patch pipettes were filled with solution contained 145 mM KCl, 1 mM MgCl2, 1 mM Mg-ATP, 0.7 mM CaCl2), 1 mM EGTA and 10 mM HEPES (PCa 6). pH was adjusted to 7.2 with KOH. The bath solution contained 140 mM NaCl, 4 mM KCl, 2 mM CaCl2), 1 mM MgCl2, 10 mM HEPES, 0.33 mM NaH2PO4, and 11.5 mM D-glucose. pH was adjusted to 7.4 with NaOH. Patch-clamp experiments and data analyses were conducted as previously described (Girault, A. et al. Current Cancer Drug Target, 2011, 11, 1111-1125). […] The amplitude of the apamin-sensitive current was obtained by subtraction of the amplitude of the current before and after application of 100 nmol/L apamin (a specific SKCa blocker).\nThe capacity of the compounds 001-006 (Table 2, FIGS. 1 and 2) to modulate the activity of SK3 currents was measured using the whole cell configuration of the patch-clamp technique. For these acute tests, a concentration of 10 μM for each of the compounds was used."}, "[1]": {"tested_on": "Thoracic aortic segment (smooth muscle cells)", "experiment": "Relaxation of phenylephrine pre-contracted, endothelium-removed thoracic aortic rings", "parameters": "species or system guinea pig", "conditions": "10 μM added 2 times, pre-contracted with 10 μM phenylephrine, 5 minutes after additions", "description": "Thoracic aortic segments were isolated from a guinea pig as already indicated by Vandier et al, (Adv Physiol Educ. 2002 December; 26(1-4):195-203). Briefly, thoracic aortic segments were isolated, cleaned of adventitia, and cut into rings. The endothelium was removed and aortic rings, were mounted on stainless steel hooks and suspended in a 30-ml jacketed tissue bath with physiological salt solution (in mm): 120 NaCl, 5.4 KCl, 1 MgCl2, 0.6 NaH2PO4, 25 NaHCO3, 5.6 glucose, 5 Na-pyruvate, and 2 CaCl2, bubbled with 95% 02-5% CO2 maintained at 37° C. and aerated with 95% 02-5% CO2. Solutions to be tested were directly added in the jacketed tissue bath generated allowed one to get the desired concentration around the aortic rings. Isometric force generation was recorded with Grass transducers (FT03; Quincy, MA) connected to an amplifier (gain 500) and analogic to digital converter (1 Hz) connected to a computer.\nThoracic aortic segment was pre-contracted using 10 μM phenylephrine. After the steady state was reached 10 μM of compound 002 was added, two successive times, directly in the bath solution containing a physiological salt solution, maintained at 37° C. and aerated with 95% 02-5% CO2"}},
  "data": [
    {"substance": "Lac(OH)7-O-2-methoxy-3-S-heneicosane [compound 002]", "values": [
      {"measurement": "effect on SK3 channel in words", "setting": "SK3 channels", "value": "strong activator of SK3 channel"},
      {"measurement": "time after addition at which the effect on SK3 current was reached", "setting": "SK3 channels", "value": 30, "unit": "s"},
      {"measurement": "time after application at which the maximum of the activation of SK3 current was reached", "setting": "SK3 channels", "value": 5, "unit": "min"},
      {"measurement": "relaxation effect on pre-contracted thoracic aortic segment", "setting": "[1]", "value": "dose-dependent relaxation"}
    ]},
    {"substance": "Lac(OH)7-O-2-methoxy-4-S-heneicosane [compound 003]", "values": [
      {"measurement": "effect on SK3 channel in words", "setting": "SK3 channels", "value": "kept its activation capacity"},
      {"measurement": "time after application at which the maximum of the activation of SK3 current was reached", "setting": "SK3 channels", "value": 5, "unit": "min"}
    ]},
    {"substance": "Lac(OH)7-O-2-ethoxy-4-S-heneicosane [compound 006]", "values": [
      {"measurement": "time after addition at which the effect on SK3 current was reached", "setting": "SK3 channels", "value": 30, "unit": "s"}
    ]},
    {"substance": "Lac(OH)7-O-2-methoxy-3-S-hexadecane [compound 001]", "values": [
      {"measurement": "effect on SK3 channel in words", "setting": "SK3 channels", "value": "abolished the activating effect"},
      {"measurement": "SK3 current (change after application of compound)", "setting": "SK3 channels; acute, HEK293T expressing SK3, currents analyzed at 0 mV, pCa 6, mean ± SEM", "value": "−9.7% ± 5.2"}
    ]}
  ]
}
